Reference: patent US6599944B1, “Ophtalmic compound with extended dwell time on the eye” (Bausch & Lomb Incorporated, priority 1996, dated 2003)

System: eye of experimental rabbits
Assay: long-term (5 weeks) eye tolerability test of preserved ophthalmic gel compositions
Type: in vivo, rabbits (Charles River)
Protocol: Long-term tests were carried out on experimental rabbits (Charles River) with the compositions of Example 1 and 2. In parallel, comparative tests were carried out with a corresponding control group in which the compositions employed were in every respect the same but differed with regard to the preservative. Instead of benzyllauryldimethylammonium chloride, on the one hand benzalkonium chloride was used in the same concentration, and on the other hand, thiomersal (standard concentration) =40 μg/g was used.

[1] = Carbopol gel, benzalkonium chloride in same concentration as Examples 1 and 2, thiomersal 40 μg/g

## C[CH2][Hg][S]c1ccccc1C(=O)[O-].[Na+] [thiomersal]
[1]
  damage to the tissue of the eye at the end of the test: in some cases also damage to the eye
  irritation in the eye at the end of the test: severe irritation
Control groups with other preservative
  rabbits showing severe irritation at the end of the test: seven of eight
